Measured values published in ChEMBL document CHEMBL4673226, “Development of 5-Aminopyrazole-4-carboxamide-based Bumped-Kinase Inhibitors for Cryptosporidiosis Therapy” (J Med Chem, 2019).
Converted amounts (≈) assume the structure as drawn. The source made the active and inactive calls. The calls are words filed in the database; no cut-off is given here.

Assays:
Cryptosporidium parvum [1] = assay: Antimicrobial activity against nano-luciferase-expressing Cryptosporidium parvum infected in IFN-gamma KO B6.129S7-Ifngtm1Ts/J mouse assessed as log reduction of infection at 25 mg/kg, po QD for 5 days beginning on day 6 post infection relative untreated control; type: functional; conditions: time 5 day
[2] = Drug level in mouse fecus at 25 mg/kg, po; conditions: read-out: Drug uptake, in vivo
[3] = Clearance in mouse at 25 mg/kg, po; type: ADME, organism-based; conditions: in vivo
[4] = AUC in mouse at 25 mg/kg, po; type: ADME, organism-based; set-up: dose 25 mg/kg; conditions: in vivo
[5] = Solubility in pH 2.0 solution
[6] = Solubility in pH 6.5 solution
HepG2 = assay: Toxicity in human HepG2 cells; type: cell-based
[7] = Toxicity in human CRL-8155 cells; type: cell-based
[8] = Inhibition of Cryptosporidium parvum CDPK1 assessed as reduction in ATP consumption using BioSyntide-2 substrate incubated for 90 mins by luciferase reporter gene assay
[9] = target: Proto-oncogene tyrosine-protein kinase Src (Homo sapiens, UniProt P12931); assay: Inhibition of SRC (unknown origin); type: ADME
Cryptosporidium parvum [10] = assay: Antimicrobial activity against nano-luciferase-expressing Cryptosporidium parvum infected in IFN-gamma KO B6.129S7-Ifngtm1Ts/J mouse assessed as log reduction of infection at 20 mg/kg, po BID for 5 days beginning on day 6 post infection relative untreated control; type: functional, organism-based; conditions: time 5.0 day
Cryptosporidium parvum [11] = assay: Antimicrobial activity against nano-luciferase-expressing Cryptosporidium parvum infected in IFN-gamma KO B6.129S7-Ifngtm1Ts/J mouse assessed as log reduction of infection at 10 mg/kg, po BID for 5 days beginning on day 6 post infection relative untreated control; type: functional, organism-based; conditions: time 5.0 day
Cryptosporidium parvum [12] = assay: Antimicrobial activity against nano-luciferase-expressing Cryptosporidium parvum infected in IFN-gamma KO B6.129S7-Ifngtm1Ts/J mouse assessed as log reduction of infection at 60 mg/kg, po QD for 5 days beginning on day 6 post infection relative untreated control; conditions: time 5 day
[13] = Protein binding in human plasma by dialysis method
[14] = Protein binding in mouse plasma by dialysis method
[15] = Half life in mouse at 25 mg/kg, po; conditions: in vivo
[16] = target: Voltage-gated inwardly rectifying potassium channel KCNH2 (Homo sapiens, UniProt Q12809); assay: Inhibition of human ERG by thallium flux assay
Cryptosporidium parvum [17] = assay: Antimicrobial activity against nano-luciferase-expressing Cryptosporidium parvum infected in human HCT8 cells incubated for 72 hrs by luciferase reporter gene assay; type: functional, organism-based; conditions: HCT-8, 72 h
in vivo [18] = conditions: mouse, po, 25 mg/kg
in vivo [19] = conditions: mouse, po, 25 mg/kg; remark: listed apart in the source

Chain of Proto-oncogene tyrosine-protein kinase Src (P12931 2-536 limits assumed): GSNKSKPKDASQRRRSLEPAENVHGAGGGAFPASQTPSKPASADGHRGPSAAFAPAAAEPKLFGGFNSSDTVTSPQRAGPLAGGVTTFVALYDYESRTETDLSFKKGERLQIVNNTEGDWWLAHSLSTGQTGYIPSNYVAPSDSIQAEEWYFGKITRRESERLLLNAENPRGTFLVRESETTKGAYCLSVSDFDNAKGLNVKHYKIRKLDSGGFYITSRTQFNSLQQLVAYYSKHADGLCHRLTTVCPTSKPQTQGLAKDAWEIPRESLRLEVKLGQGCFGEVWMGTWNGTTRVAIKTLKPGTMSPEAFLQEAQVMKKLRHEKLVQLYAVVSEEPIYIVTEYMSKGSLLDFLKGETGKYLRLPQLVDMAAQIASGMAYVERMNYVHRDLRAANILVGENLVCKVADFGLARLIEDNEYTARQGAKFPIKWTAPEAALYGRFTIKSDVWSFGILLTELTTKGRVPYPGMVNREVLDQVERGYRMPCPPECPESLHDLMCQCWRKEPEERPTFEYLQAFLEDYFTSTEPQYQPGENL
Chain of Voltage-gated inwardly rectifying potassium channel KCNH2 (Q12809 whole entry): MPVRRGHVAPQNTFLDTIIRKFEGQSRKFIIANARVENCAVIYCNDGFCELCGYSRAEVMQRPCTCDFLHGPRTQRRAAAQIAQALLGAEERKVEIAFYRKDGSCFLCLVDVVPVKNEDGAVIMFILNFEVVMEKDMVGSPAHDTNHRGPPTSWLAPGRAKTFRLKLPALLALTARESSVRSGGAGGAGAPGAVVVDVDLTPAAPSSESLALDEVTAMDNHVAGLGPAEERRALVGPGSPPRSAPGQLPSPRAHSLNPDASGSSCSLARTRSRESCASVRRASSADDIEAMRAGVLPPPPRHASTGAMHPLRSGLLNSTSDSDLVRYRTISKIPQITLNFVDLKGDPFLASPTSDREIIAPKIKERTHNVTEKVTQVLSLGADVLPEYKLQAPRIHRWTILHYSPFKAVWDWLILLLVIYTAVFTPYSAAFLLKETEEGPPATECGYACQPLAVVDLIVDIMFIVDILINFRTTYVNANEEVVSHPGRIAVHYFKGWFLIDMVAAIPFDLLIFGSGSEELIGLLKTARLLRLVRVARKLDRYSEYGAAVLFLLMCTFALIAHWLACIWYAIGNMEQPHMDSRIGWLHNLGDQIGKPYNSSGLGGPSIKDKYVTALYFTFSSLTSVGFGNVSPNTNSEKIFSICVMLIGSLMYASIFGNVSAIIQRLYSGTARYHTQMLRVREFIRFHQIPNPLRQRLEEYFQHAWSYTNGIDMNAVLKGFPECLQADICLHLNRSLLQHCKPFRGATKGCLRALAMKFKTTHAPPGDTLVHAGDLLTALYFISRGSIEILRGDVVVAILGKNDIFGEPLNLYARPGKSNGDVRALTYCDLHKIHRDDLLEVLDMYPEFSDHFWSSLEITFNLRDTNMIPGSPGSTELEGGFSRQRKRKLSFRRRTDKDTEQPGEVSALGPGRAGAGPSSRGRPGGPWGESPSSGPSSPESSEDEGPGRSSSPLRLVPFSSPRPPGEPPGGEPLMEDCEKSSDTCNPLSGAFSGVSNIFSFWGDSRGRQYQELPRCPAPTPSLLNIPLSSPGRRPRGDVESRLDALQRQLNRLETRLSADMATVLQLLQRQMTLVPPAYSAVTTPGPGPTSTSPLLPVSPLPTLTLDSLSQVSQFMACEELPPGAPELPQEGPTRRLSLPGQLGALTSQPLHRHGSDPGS

Structure (SMILES) | log reduction (Cryptosporidium parvum [1]) | concentration [2] [µM] | CL/F [3] [mL/min] | AUC [4] [µmol·min/L] | solubility ([5]; buffer) [µM] | solubility ([6]; buffer) [µM] | Activity (HepG2) | Activity [7] | IC50 [8] [nM] | IC50 [9] [nM] | PPB [13] [%] | PPB [14] [%] | further results
CCOc1ccc2cc(-c3nn(C(C)(C)CO)c(N)c3C(N)=O)ccc2c1 | 0.81 | 7.1 | 0.2 | 9365 | 18.8 (≈ 6.93 µg/mL) | 8 (≈ 2.95 µg/mL) | Non-Toxic | Non-Toxic | 9 | > 10000 | – | – | –
CCOc1ccc2cc(-c3nn(C(C)(C)CO)c(N)c3C(N)=O)ccc2n1 | – | 0.41 | 0.4 | 11412.6 | > 100 | > 100 | Non-Toxic | Non-Toxic | 3.1 | > 10000 | 84 | 80 | Activity (Cryptosporidium parvum [10]): inactive; Activity (Cryptosporidium parvum [11]): inactive; FC (Cryptosporidium parvum [12]): 3.15
CCOc1ccc2cc(-c3nn(CC4CC4)c(N)c3C(N)=O)ccc2c1 | 0.76 | 54 | 0.5 | 2800.8 | – | – | Non-Toxic | Non-Toxic | 0.03 | 10000 | 95 | 97 | –
CC(CCO)n1nc(-c2ccc3nc(OC4CC4)ccc3c2)c(C(N)=O)c1N (stereo not drawn) | – | – | 0.7 | 1154.1 | – | – | Non-Toxic | Non-Toxic | 5.9 | > 10000 | – | – | half-life [15]: 1.42 h; solubility ([5]; pH 2.0 solution): > 100 µM; solubility ([6]; pH 6.5 solution): 98 µM (≈ 37.4 µg/mL); fraction unbound [14]: 0.23; IC50 [16]: > 30000 nM; EC50 (Cryptosporidium parvum [17]): 600 nM; Cmax (in vivo [18]): 8.5 µM; Tmax (in vivo [19]): 0.667 h
